Entries after “also recorded” stand apart in the source; their conditions may differ. Where two headings read alike, the source gives them in different places.
How the values were obtained:
[1] = test system: cellular immune response (DHR to ram erythrocytes); experiment: delayed hypersensitivity reaction (DHR) in mice; format: in vivo
Procedure: To evaluate the effect of the preparation on cellular immunity reaction, delayed hypersensitivity reaction (DHR) was used. The mice were sensitized by subcutaneous injection of 1·10^7 ram erythrocytes contained in a volume of 20 μl. Doses of the preparation ranging from 0.2 to 2,000 μg were injected at ten-fold intervals simultaneously with sensitizing and shocking dose of the antigen. Shocking dose of ram erythrocytes (1·10^8) was injected under aponeurotic plate of left hind paw on the 5th day after sensitization. Injection of 20 μl of physiologic solution in the right paw served as control. Intensity of inflammatory reaction was recorded 24 hours after the administration of shocking dose of the antigen. For this purpose, the mice were killed and, immediately after this, both paws were amputated at the level of ankle joint and weighed on torsion balance. Reaction index (RI) was determined as the difference of masses of study (S) and control (C) paws using the following formula: [formula]

[2] = test system: natural killers (CD3−, CD16+ and CD56+); experiment: cytotoxic activity of natural killers against K-562 cells; format: cell-based, human
Procedure: Labeled cells of […] of myeloblastoid Strain K-562, as well as mononuclear cells of 10 healthy blood donors and 10 patients with various diseases with low and high levels of cytotoxicity, were used for the study of effects of various concentrations of the preparation on cytotoxic activity of natural killers (CD3^−, CD16^+ and CD56^+).
The used Strain K-562 cells to effector cells ratio was 1:25 (100 μl of labeled cells and 100 μl of mononuclear cells). The studies were carried out using 96-well plates; incubation for 16 to 24 hours in a CO2-incubator at 37° C. was carried out. Then, the contents of the wells was transferred to filters, washed, dried and placed in solution with scintillation liquid with consecutive determination of index using a β-counter. Cytotoxic index (CI) was calculated using the following formula: [formula]
A=the target cells radioactivity in the presence of effector cells;
B=radioactivity after cells treatment with […] (maximum value);
C=radioactivity of target cells in the absence of effector cells.

Strain 264 E. Coli = experiment: non-specific resistivity of mice infected with E. Coli; format: in vivo, Strain C57BL6 mice; set-up: Mean lifetime: unit not given beside the values
Procedure: Doses of the preparation ranging from 200 to 0.2 μg were injected intraperitoneally at ten-fold intervals in 0.5 ml of physiologic solution to Strain C57BL6 mice two hours before their infecting. Mice were infected with S. Typhi in a dose of 1·10^4 microbial cells; another group of animals was infected with Strain 264 E. coli in a dose of […] microbial cells. Mice infected with the same microbial culture, but receiving no preparation, were used a controls. Lethal outcomes in mice were recorded every day for a period of 10 days.

Procedure for spleen cell culture: Effects of the compounds on lymphoid cells proliferation and interleukin-2 induction in vitro were evaluated with the use of Strain BalB/c mice weighing 16 to 18 g. Animals of control and study groups were matched by sex and weight. Each dose of the preparation was tested on 10 animals; as a whole, more than 800 mice have been studied.
Spleens of the animals were used for carrying out the immunologic reactions. The organs were cut and homogenized in a glass homogenizer. […] The suspensions were centrifuged in a K23 centrifuge at 1,500 rpm at 4° C. for 10 minutes.
The suspensions were diluted 100-fold with 3% acetic acid contrasted with methylene blue, and cells were counted in Goryaev's chamber. Cell viability was evaluated with aid of 0.1% trypan blue in physiologic solution.

SMILES: Cl.Nc1cccc2c(=O)[nH][nH]c(=O)c12 [5-amino-2,3-dihydrophthalazine-1,4-dione hydrochloride]
- lymphoid cells proliferation (spleen cell culture; 2.5 μg/ml, ConA): 195 ± 27
- lymphoid cells proliferation (spleen cell culture; 2.5 μg/ml, LPS): 251 ± 44
- lymphoid cells proliferation (spleen cell culture; 2.5 μg/ml, no mitogen): 249 ± 93
- lymphoid cells proliferation (spleen cell culture; 12.5 μg/ml, ConA): 178 ± 28
- lymphoid cells proliferation (spleen cell culture; 12.5 μg/ml, LPS): 256 ± 40
- lymphoid cells proliferation (spleen cell culture; 12.5 μg/ml, no mitogen): 369 ± 56
- mitogenic properties (spleen cell culture; 50 μg/ml to 12.5 mg/ml): no mitogenic properties
- lymphoid cells proliferation (spleen cell culture; 50 μg/ml, ConA): 11860 ± 1566
- lymphoid cells proliferation (spleen cell culture; 50 μg/ml, LPS): 13232 ± 928
- lymphoid cells proliferation (spleen cell culture; 50 μg/ml, no mitogen): 2576 ± 237
- lymphoid cells proliferation (spleen cell culture; 500 μg/ml, ConA): 1323 ± 192
- lymphoid cells proliferation (spleen cell culture; 500 μg/ml, LPS): 3870 ± 308
- lymphoid cells proliferation (spleen cell culture; 500 μg/ml, no mitogen): 1763 ± 94
- spontaneous proliferation of spleen cells and proliferation induced by ConA and LPS (spleen cell culture; higher concentrations): inhibited

SMILES: Nc1ccc2c(=O)[nH][nH]c(=O)c2c1.[Na] [sodium salt of 6-amino-2,3-dihydrophthalazine-1,4-dione]
- Reaction index ([1]; 2 μg, Strain C57BL6 mice): 19 ± 9
- Reaction index ([1]; 2 μg, Strain CBA mice): 11 ± 8
- Reaction index ([1]; 20 μg, Strain C57BL6 mice): 16 ± 9
- Reaction index ([1]; 20 μg, Strain CBA mice): 10 ± 5
- Reaction index ([1]; 200 μg, Strain C57BL6 mice): 15 ± 6
- Reaction index ([1]; 200 μg, Strain CBA mice): 2 ± 1.5
- development of DHR ([1]; 200 μg, high-reaction Strain CBA mice): inhibition of DHR; also recorded: suppressed
- development of DHR ([1]; 20 to 2 μg, mice of both strains): no effect
- reaction index (trend) ([1]; mice of both strains, as the dose of the preparation decreased): tendency to increase

SMILES: CNc1cccc2c(=O)[nH][nH]c(=O)c12.[Na] [sodium salt of 5-methylamino-2,3-dihydrophthalazine-1,4-dione]
- Cytotoxic index level, % (M) ([2]; 2.5 μg/ml, High control level of CI): 57 ± 0.7%
- Cytotoxic index level, % (M) ([2]; 2.5 μg/ml, Low control level of CI): 34 ± 1.3%
- Cytotoxic index level, % (M) ([2]; 2.5 μg/ml, Medium control level of CI): 41.9 ± 0.9%
- CI, % ([2]; 2.5 μg/ml, normal level of CI): 41.9 ± 2.8%
- Cytotoxic index level, % (M) ([2]; 5.0 μg/ml, High control level of CI): 54 ± 0.8%
- Cytotoxic index level, % (M) ([2]; 5.0 μg/ml, Low control level of CI): 30 ± 1.2%
- CI, % ([2]; 5.0 μg/ml, normal level of CI): 38.8 ± 3.1%
- CI, % ([2]; 10.0 μg/ml, normal level of CI): 40.8 ± 3.0%
- CI, % ([2]; 25.0 μg/ml, normal level of CI): 41.4 ± 3.0%
- CI, % ([2]; 50.0 μg/ml, normal level of CI): 39.1 ± 4.0%
- CI, % ([2]; 75.0 μg/ml, normal level of CI): 37.7 ± 4.1%
- CI, % ([2]; 150.0 μg/ml, normal level of CI): 41.0 ± 3.5%
- CI, % ([2]; 300.0 μg/ml, normal level of CI): 39.0 ± 3.1%
- cytotoxicity of natural killers ([2]; 2.5 and 5.0 μg/ml, high initial level of CI): statistically significant inhibition
- functional activity of natural killers ([2]; 2.5 and 5.0 μg/ml, low initial level of CI): statistically significant stimulation
- modification of natural killers cytotoxicity ([2]; 2.5 to 300 μg/ml, normal level of CI): did not cause significant modification

SMILES: Nc1cccc2c(=O)[nH][nH]c(=O)c12.[Ca] [calcium salt of 5-amino-2,3-dihydrophthalazine-1,4-dione]
- Mean lifetime (Strain 264 E. Coli; dose 0.2 μg): 2.2
- Number of lethal outcomes, day 1 (Strain 264 E. Coli; dose 0.2 μg i.p., 10 mice): 4
- Number of lethal outcomes, day 3 (Strain 264 E. Coli; dose 0.2 μg i.p., 10 mice): 6
- increase in lifetime of animals infected with E. Coli (Strain 264 E. Coli; dose 0.2 μg, versus controls): 2.2 fold
- Mean lifetime (Strain 264 E. Coli; dose 2 μg): 1.0
- Number of lethal outcomes, day 1 (Strain 264 E. Coli; dose 2 μg i.p., 10 mice): 10
- Mean lifetime (Strain 264 E. Coli; dose 20 μg): 1.0
- Number of lethal outcomes, day 1 (Strain 264 E. Coli; dose 20 μg i.p., 10 mice): 10
- Mean lifetime (Strain 264 E. Coli; dose 200 μg): 1.0
- Number of lethal outcomes, day 1 (Strain 264 E. Coli; dose 200 μg i.p. two hours before infecting, 10 mice): 10
- effects on the resistivity of mice infected with E. Coli (Strain 264 E. Coli; doses 200 to 2 μg): no effects

Reference: US20030195183A1, “Method for correcting immune system of live body” (priority 2000, published 2003)
